Test results taken from patent US4443619A, “Chlorocitric acids” (Hoffmann-La Roche Inc., priority 1981, dated 1984).
Where a name gives a salt, the structure may show the parent alone.

Assays:
[1] = Effect of stereoisomers of chlorocitric acid on food consumption in meal-fed rats (Example 14); assay type: in vivo, Charles River female rats; details: mean ± S.E.
Procedure: Animals were fasted 48 hr, then meal-fed the 70% glucose diet described by A. C. […] Following 5 to 12 days alimentation on the meal-feeding regimen, rats were dosed with the appropriate compounds orally by intubation 1/2 hr before the 3 hr meal. Food cups were weighed immediately after the meal. The control group consisted of 5 to 10 rats, while the experimental group consisted of 4 to 6 rats.

[2] = Anorectic activities of stereoisomers: 3-day food consumption and body weight gain in meal-fed rats; assay type: in vivo, Charles River female rats; details: 1.32 mmoles/kg oral, 3 days, mean ± S.E.
Procedure: Charles River female rats (Charles River Breeding Laboratories, Wilmington, Mass.), weighing 196 to 210 g, were individually housed in wire-bottomed cages in a temperature-regulated (22° C.) light-controlled room (12 hr light, 6 a.m. to 6 p.m. and 12 hr dark, 6 p.m. to 6 a.m.). Animals were fasted 48 hr, then meal-fed a 70% glucose diet from 8 to 11 a.m. Following 5 to 12 days alimentation on the meal-feeding regimen, rats were dosed with the appropriate compounds orally by intubation 1/2 hr before the 3 hr meal for 3 days. The total food consumption and body weight gained during the 3 day period were determined. The control group consisted of 16 rats, while the experimental group consists of 8 rats.

Stomach Emptying = assay: Effect on stomach emptying ([14C]glucose load) in rats (Example 25); assay type: in vivo; details: 0.33 mmoles/kg oral, 60 min after [14C]glucose load, mean ± S.E.
Procedure: Rats were trained to consume a 3 hr 70% glucose meal from 8 a.m. to 11 a.m. daily. On the experimental day, compounds were administered orally by intubation 30 min before a [^14 C]glucose load was given also by intubation. […] Sixty minutes later the rats were killed by decapitation; blood and stomachs were collected on ice.
Data are expressed as follows: dpm×10^3 per ml of serum and dpm×10^3 per stomach.

[3] = 0.66 mmoles/kg oral, control 8.2 ± 1.2
[4] = 2.63 mmoles/kg oral, control 13.5 ± 0.8

Structure (SMILES)	Food consumption [1, 3]	Food consumption [1, 4]	3-Day Body Weight Gain [2]	3-Day Food Consumption [2]	Serum, total per ml (Stomach Emptying)	Stomach Contents, total per stomach (Stomach Emptying)
O=C(O)C[C@@](O)(C(=O)O)[C@H](Cl)C(=O)O [(+)-erythro-Chlorocitric acid, (+)-erythro-chlorocitric acid]	8.1 ± 1.6 g	10.5 ± 0.8 g	-1.5 ± 2.3 g	31.8 ± 2.3 g	5.0 ± 0.4 dpm × 10^3	1832 ± 160 dpm × 10^3
O=C(O)C[C@](O)(C(=O)O)[C@@H](Cl)C(=O)O [(-)-erythro-Chlorocitric acid, (-)-erythro-chlorocitric acid]	7.0 ± 1.9 g	7.2 ± 1.5 g	-4.8 ± 3.2 g	24.5 ± 1.8 g	5.1 ± 0.4 dpm × 10^3	1491 ± 232 dpm × 10^3
O=C(O)CC(O)(CC(=O)O)C(=O)O [Trisodium Citrate, reference compound]					6.4 ± 0.1 dpm × 10^3	1180 ± 208 dpm × 10^3
